Assay results: patent US20240083857A1, “2-Methyl-Quinazolines” (Bayer Pharma Aktiengesellschaft, priority 2017, published 2024)

What was measured:
[1] = biological target: K-Ras^G12C : hSOS1 interaction (Homo sapiens, UniProt Q07889); assay: Biochemical assay 1: K-Ras^G12C interaction assay with hSOS1 (HTRF); assay type: binding; details: read-out: Assay 1 (KRAS-SOS Interaction) activity expressed as IC50
[2] = biological target: human SOS1 (loading of human K-Ras^G12C-GDP with fluorescent GTP-analog) (Homo sapiens, UniProt Q07889); assay: Biochemical assay 3: K-Ras^G12C activation assay by hSOS1 (HTRF); details: no GTP; for IC50: read-out: Assay 3 (KRAS-Activation by SOS no GTP) activity expressed as IC50; for inhibition at 20 µM: read-out: Assay 3 (KRAS-Activation by SOS no GTP) activity expressed as % inhibition at 20 μM

Compound	IC50 [1] [nM]	IC50 [2] [nM]	inhibition at 20 µM [2] [%]
COc1cc2nc(C)nc(NC(C)c3ccc(-c4cnc5n4CCC5)s3)c2cc1OC (single isomer, unassigned; enantiomer 1) [Example 328, N-{1-[5-(6,7-dihydro-5H-pyrrolo[1,2-a]imidazol-3-yl)thiophen-2-yl]ethyl}-6,7-dimethoxy-2-methylquinazolin-4-amine, Enantiomer 1]	142	669	–
COc1cc2nc(C)nc(NC(C)c3ccc(-c4cnc5n4CCC5)s3)c2cc1OC (single isomer, unassigned; enantiomer 2) [Example 329, N-{1-[5-(6,7-dihydro-5H-pyrrolo[1,2-a]imidazol-3-yl)thiophen-2-yl]ethyl}-6,7-dimethoxy-2-methylquinazolin-4-amine, Enantiomer 2]	2410	10600	–
COc1cc2nc(C)nc(NC(C)c3ccc(-c4ccc(F)cc4CNC(=O)[C@H]4CCCN4)s3)c2cc1OC (stereo in doubt) [Example 316, N-[2-(5-{1-[(6,7-dimethoxy-2-methylquinazolin-4-yl)amino]ethyl}thiophen-2-yl)-5-fluorobenzyl]-prolinamide]	271	308	–
COc1cc2nc(C)nc(NC(C)c3cccc4scnc34)c2cc1OC (stereo not shown) [Example 14, N-[1-(1,3-benzothiazol-4-yl)ethyl]-6,7-dimethoxy-2-methylquinazolin-4-amine]	666	1830	–
COc1cc2nc(C)nc(NC(C)c3cccc4ccsc34)c2cc1OC (stereo not shown) [Example 15, N-[1-(1-benzothiophen-7-yl)ethyl]-6,7-dimethoxy-2-methylquinazolin-4-amine]	126	324	–
COc1cc2nc(C)nc(NC(C)c3cc(C)cc4[nH]ncc34)c2cc1OC (stereo not shown) [Example 16, 6,7-dimethoxy-2-methyl-N-[1-(6-methyl-1H-indazol-4-yl)ethyl]quinazolin-4-amine]	3250	8170	–
COc1cc2nc(C)nc(NC(C)c3cccc4c3cnn4C)c2cc1OC (stereo not shown) [Example 17, 6,7-dimethoxy-2-methyl-N-[1-(1-methyl-1H-indazol-4-yl)ethyl]quinazolin-4-amine]	270	712	–
COc1cc2nc(C)nc(NC(C)c3c(F)ccc4[nH]ncc34)c2cc1OC (stereo not shown) [Example 18, N-[1-(5-fluoro-1H-indazol-4-yl)ethyl]-6,7-dimethoxy-2-methylquinazolin-4-amine]	6500	10500	–
COc1cc2nc(C)nc(NC(C)c3ccc4c(c3)OCCO4)c2cc1OC (stereo not shown) [Example 19, N-[1-(2,3-dihydro-1,4-benzodioxin-6-yl)ethyl]-6,7-dimethoxy-2-methylquinazolin-4-amine]	7780	–	44
COc1cc2nc(C)nc(NC(C)c3cc4ccccc4o3)c2cc1OC (stereo not shown) [Example 20, N-[1-(1-benzofuran-2-yl)ethyl]-6,7-dimethoxy-2-methylquinazolin-4-amine]	8420	–	41
COc1cc2nc(C)nc(NC(C)c3cccc(OC)c3OC)c2cc1OC (stereo not shown) [Example 21, N-[1-(2,3-dimethoxyphenyl)ethyl]-6,7-dimethoxy-2-methylquinazolin-4-amine]	3160	11100	–
COc1cc2nc(C)nc(N[C@H](C)c3cccc(-c4ccccc4CN)c3)c2cc1OC [Example 258, N-{(1R)-1-[2′-(aminomethyl)biphenyl-3-yl]ethyl}-6,7-dimethoxy-2-methylquinazolin-4-amine]	204	245	–
COc1cc2nc(C)nc(NC(C)c3csc(-c4ccccc4CN)c3)c2cc1OC (stereo not shown) [Example 259, N-[1-{5-[2-(aminomethyl)phenyl]thiophen-3-yl}ethyl]-6,7-dimethoxy-2-methylquinazolin-4-amine]	402	650	–
COc1cc2nc(C)nc(N[C@H](C)c3cccc(CN)c3)c2cc1OC [Example 260, N-{(1R)-1-[3-(aminomethyl)phenyl]ethyl}-6,7-dimethoxy-2-methylquinazolin-4-amine]	4880	5680	–
